Data published in PubChem BioAssay (NCI).
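Assay format: 96-well plates, 48-hour exposure. Abbreviation: GI50, concentration required for 50% inhibition of growth. TGI is the concentration that stops growth completely.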

Key:
Assay in all cases: DTP human tumour cell line panel, 48 h
[1] = test system: A498 renal
[2] = test system: KM12 colon
[3] = test system: EKVX NSCLC
[4] = test system: MOLT-4 leukemia
[5] = test system: RXF 393 renal
[6] = test system: RPMI-8226 leukemia
[7] = test system: SK-MEL-28 melanoma
[8] = test system: SK-OV-3 ovarian
[9] = test system: NCI-H522 lung
[10] = test system: OVCAR-3 ovarian

Structure (SMILES) | TGI [1] | TGI [2] | TGI [3] | TGI [4] | TGI [5] | TGI [6] | TGI [7] | TGI [8] | TGI [9] | TGI [10] | GI50 [1] | GI50 [2] | GI50 [9] | GI50 [10] | GI50 [3] | GI50 [4] | GI50 [5] | GI50 [6] | GI50 [7] | GI50 [8]
COc1ccc2c3c([nH]c2c1)CCN(Cc1ccccc1)C3 | 46.5 µM | 70.5 µM | > 100 µM | 73.7 µM | 50.7 µM | 64.6 µM | 38 µM | > 100 µM | – | – | – | – | – | – | – | – | – | – | – | –
Cc1nc2[nH]ncn2c(=O)c1CCO | > 10 µM | – | > 10 µM | > 10 µM | > 10 µM | > 10 µM | 7.74 µM | > 10 µM | > 10 µM | – | – | – | – | – | – | – | – | – | – | –
CC(CN(C)C)C(=O)c1ccccc1 (stereo not given) | > 76.5 µM | > 51.5 µM | > 79 µM | 27.6 µM | > 54.2 µM | 19.8 µM | > 56.6 µM | – | 4.32 µM | 97.8 µM | – | – | – | – | – | – | – | – | – | –
COc1cc(C2c3cc4c(cc3[C@@H](Oc3ccc(F)cc3)C3COC(=O)[C@H]23)OCO4)cc(OC)c1O (stereo not given in full) | – | 27.9 µM | > 100 µM | 4.66 µM | – | 6.64 µM | > 100 µM | – | > 100 µM | 72.3 µM | – | – | – | – | – | – | – | – | – | –
COc1ccc(C2C3CCCC(C3=O)C(c3ccc(OC)cc3)N2N=O)cc1 (stereo not given) | 25.4 µM | > 74.1 µM | 99.6 µM | > 61.6 µM | 41.1 µM | 47.8 µM | > 100 µM | > 87.6 µM | 34.6 µM | 20 µM | – | – | – | – | – | – | – | – | – | –
ClCc1cccc(CSc2ncnc3c2ncn3Cc2cccc(CCl)c2)c1 | 23.6 µM | 3.46 µM | 24.6 µM | 17.2 µM | 2.4 µM | 4.86 µM | 3.08 µM | 4.97 µM | 3.42 µM | 3.31 µM | 11.1 µM | 1.88 µM | 1.42 µM | 1.86 µM | 10.1 µM | 3.65 µM | 1.05 µM | 1.89 µM | 1.59 µM | 2.3 µM
COc1ccc2c(c1)c(=O)c1c(NCCN(C)C)ccc3nnn2c31 | 21.7 µM | 6.03 µM | 17.9 µM | 2.99 µM | 10.5 µM | 6.13 µM | 18.8 µM | 23.9 µM | 15.8 µM | 19.6 µM | – | – | – | – | – | – | – | – | – | –
CCOC(=O)Cc1cnc(NC(NC(=O)CC)(C(F)(F)F)C(F)(F)F)s1 | > 100 µM | > 100 µM | > 100 µM | > 100 µM | > 100 µM | > 100 µM | > 100 µM | > 100 µM | > 100 µM | > 100 µM | – | – | – | – | – | – | – | – | – | –
COc1ccc(N2C(=O)C3c4[nH]c5ccc(F)cc5c4C4CCC(C(C)(C)C)CC4C3C2=O)cc1 (stereo not given) | > 10 µM | > 10 µM | > 10 µM | > 10 µM | > 10 µM | > 10 µM | > 10 µM | > 10 µM | > 10 µM | > 10 µM | – | – | – | – | – | – | – | – | – | –
O=C(NCCNc1nccc(-c2c(-c3cccc(O)c3)nc3sccn23)n1)c1ccccc1 | 19.3 µM | 28.5 µM | > 100 µM | 74.2 µM | 22.2 µM | 25.3 µM | 99.1 µM | – | 25.5 µM | 64.8 µM | 3.68 µM | 12.1 µM | 5.76 µM | 12.3 µM | 25 µM | 13.5 µM | 4.14 µM | 6.97 µM | 0.336 µM | –
O=C(NNS(=O)(=O)c1ccccc1)c1cccnc1 | > 100 µM | > 100 µM | > 100 µM | > 100 µM | > 100 µM | > 100 µM | > 100 µM | > 100 µM | > 100 µM | > 100 µM | – | – | – | – | – | – | – | – | – | –
